Legend:
Tdp1 [1] = biological target: T1, Tdp1 (Homo sapiens, UniProt Q9NUW8); details: cited from earlier work
Tdp1 [2] = biological target: T1, Tdp1; assay: Tdp1 AlphaScreen HTS assay; assay type: biochemical; details: for Tdp1 inhibition (in words): AlphaScreen primary / follow-up HTS assay, Fig. 5C
CD-45 associated PTP = details: cited from earlier work
Tdp1 [3] = biological target: T1, Tdp1; assay: Secondary radiolabel gel-based assay; assay type: biochemical; details: Fig. 5B & C
H493R Tdp1 mutant = H493R Tdp1 mutant (Homo sapiens, UniProt Q9NUW8, H493R); assay: SCAN1 Tdp1 mutant covalent Tdp1-DNA intermediate; assay type: biochemical; details: for accumulation of the covalent Tdp1-DNA intermediate: 10 μM concentration, H493R Tdp1 100 nM
Sequence of H493R Tdp1 mutant (Q9NUW8 whole entry H493R): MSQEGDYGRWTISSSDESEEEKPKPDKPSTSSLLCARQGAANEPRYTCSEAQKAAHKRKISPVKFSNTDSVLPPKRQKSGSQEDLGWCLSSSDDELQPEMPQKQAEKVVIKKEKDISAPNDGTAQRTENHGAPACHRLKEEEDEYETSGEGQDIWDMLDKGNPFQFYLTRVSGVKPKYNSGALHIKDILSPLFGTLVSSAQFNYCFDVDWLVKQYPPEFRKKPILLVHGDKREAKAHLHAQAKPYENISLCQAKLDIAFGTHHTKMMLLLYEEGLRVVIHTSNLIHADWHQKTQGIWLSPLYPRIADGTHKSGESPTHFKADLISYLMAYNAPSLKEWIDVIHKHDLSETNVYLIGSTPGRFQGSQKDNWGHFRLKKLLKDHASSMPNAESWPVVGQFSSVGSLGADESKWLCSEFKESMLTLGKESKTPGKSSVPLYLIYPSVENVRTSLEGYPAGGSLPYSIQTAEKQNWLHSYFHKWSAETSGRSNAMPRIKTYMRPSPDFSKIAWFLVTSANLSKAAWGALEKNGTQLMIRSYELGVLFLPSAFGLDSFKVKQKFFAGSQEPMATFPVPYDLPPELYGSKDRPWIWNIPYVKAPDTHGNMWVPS

T1 sequence (Q9NUW8 whole entry): as the sequence (Q9NUW8 whole entry H493R) above, with R493H counted along it

SMILES | concentration at which Tdp1 is inhibited (in words) (Tdp1 [1]) | Tdp1 inhibition (in words) (Tdp1 [3]) | accumulation of the covalent Tdp1-DNA intermediate (H493R Tdp1 mutant) | Tdp1 inhibition (in words) (Tdp1 [2]) | further results
[O]=[V]([O-])([O-])[O-] [vanadate] | millimolar concentrations | – | – | – | Tdp1 inhibition potency (in words) (Tdp1 [2]; AlphaScreen assay, 384-well, Fig. 3C): inhibition in the sub-millimolar range
[O]=[W](=[O])([O-])[O-] [tungstate] | millimolar concentrations | – | – | – | –
N=C(N)c1ccc(-c2ccc(-c3ccc(C(=N)N)cc3)o2)cc1 [Furamidine, furamidine] | micromolar concentrations | – | – | – | –
CN(N=O)c1ccc(O)c(O)c1 [methyl-3,4-dephostatin] | – | sub-micromolar concentration | completely prevented | sub-micromolar concentration | inhibition of CD-45 associated PTP (CD-45 associated PTP): does not inhibit
CN(N=O)c1cc(O)ccc1O [dephostatin] | – | only a trace level of inhibition | much weaker effect | only trace inhibition | Tdp1 inhibition (in words) (Tdp1 [3]; listed as Dephostatin): only trace inhibition; effect on binding of the Tdp1 DNA substrate (DNA trapping) (H493R Tdp1 mutant; SCAN1 Tdp1 mutant): almost no effect

From paper PMC2676116 (Molecular cancer therapeutics, 2009)
